Like-named read-outs stand apart in the source and are kept apart here.
What was measured:
NLuc = biological target: T1, NLuc (Oplophorus gracilirostris, UniProt Q9GV45, A31E/A60N/A81I/F95D/I117V/K70R/L54V/L99Q/M102K/N193R/P142E/Q151K/Q38R/Q45L/V71I/Y165I); assay type: biochemical; conditions: - ATP
T1 construct: His tag (inferred from IMAC purification); made in house; host or cells: E. coli
Summary of the method: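 Test compounds added to 1 nM NLuc in PBS with 0.05% IGEPAL, ± ATP. Nano-Glo reagent added and incubated 10 min before luminescence read.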

P. pyralis FLuc = P. pyralis FLuc (Photinus pyralis, UniProt P08659); assay: FLuc enzymatic luminescence assay, P. pyralis FLuc; assay type: biochemical; conditions: FLuc enzymatic assay; for IC50: read-out: IC50 or SDR50 (mM) FLuc E
Summary of the method: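 Runs with and without 10 µM ATP: compounds were pre-incubated with FLuc (1–10 nM, PBS pH 7.4) at ambient temperature, light-protected, for 30–60 min. Luminescence was imaged 5 min after adding 10 µM D-luciferin (final). Inhibition was scaled between DMSO neutral and no-enzyme controls.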

FLuc-C-HiBiT = biological target: T2, FLuc-C-HiBiT (Photinus pyralis, UniProt P08659); assay: biochemical; conditions: enzyme activity, 10 uM ATP; read-out: IC50 or SDR50 (mM) / FLuc E
T2 construct: firefly luciferase with C-terminal HiBiT tag, E. coli expressed

[1] = biological target: FLuc-C-NLuc (firefly luciferase) (Photinus pyralis, UniProt P08659, form not given/L550V); assay: SDR assay, FLuc-C-NLuc; conditions: - ATP
[2] = biological target: FLuc-C-HiBiT (firefly luciferase) (Photinus pyralis, UniProt P08659, form not given/L550V); assay: SDR assay, FLuc-C-HiBiT; conditions: for % Activity (max response, + ATP) / % Activity (max response, - ATP): SDR max. response, clade S
Sequence of FLuc-C-HiBiT (firefly luciferase) (P08659 2-550 L550V, form open): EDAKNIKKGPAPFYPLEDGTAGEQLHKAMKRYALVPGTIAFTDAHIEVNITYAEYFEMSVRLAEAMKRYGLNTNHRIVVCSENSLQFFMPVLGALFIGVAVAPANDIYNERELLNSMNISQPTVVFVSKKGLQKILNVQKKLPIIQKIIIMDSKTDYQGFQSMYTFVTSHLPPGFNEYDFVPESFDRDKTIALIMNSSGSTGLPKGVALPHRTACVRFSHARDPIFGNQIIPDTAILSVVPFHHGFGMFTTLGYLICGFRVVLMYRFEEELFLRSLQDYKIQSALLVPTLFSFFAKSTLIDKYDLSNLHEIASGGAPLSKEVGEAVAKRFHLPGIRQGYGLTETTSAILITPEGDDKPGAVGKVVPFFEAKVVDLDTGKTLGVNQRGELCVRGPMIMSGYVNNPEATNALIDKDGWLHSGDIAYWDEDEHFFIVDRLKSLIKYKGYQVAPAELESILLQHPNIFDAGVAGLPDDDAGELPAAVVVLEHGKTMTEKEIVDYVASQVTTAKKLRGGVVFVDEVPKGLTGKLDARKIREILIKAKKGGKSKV

Sequence of P. pyralis FLuc (P08659 whole entry): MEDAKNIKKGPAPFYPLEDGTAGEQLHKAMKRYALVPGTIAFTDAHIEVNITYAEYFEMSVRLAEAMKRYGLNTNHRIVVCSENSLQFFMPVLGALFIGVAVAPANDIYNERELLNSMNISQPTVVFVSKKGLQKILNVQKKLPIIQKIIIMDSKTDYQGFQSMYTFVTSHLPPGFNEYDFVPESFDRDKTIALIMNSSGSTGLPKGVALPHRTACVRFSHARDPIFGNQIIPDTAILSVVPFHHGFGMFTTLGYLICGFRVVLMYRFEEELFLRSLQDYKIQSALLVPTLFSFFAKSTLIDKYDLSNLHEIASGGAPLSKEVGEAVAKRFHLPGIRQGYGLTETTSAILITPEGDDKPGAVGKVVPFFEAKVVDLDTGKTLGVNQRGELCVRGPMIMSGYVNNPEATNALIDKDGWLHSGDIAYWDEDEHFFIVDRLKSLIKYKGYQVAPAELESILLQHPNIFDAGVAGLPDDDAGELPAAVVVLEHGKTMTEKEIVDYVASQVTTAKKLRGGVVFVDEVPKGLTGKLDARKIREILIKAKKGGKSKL
T2 sequence (P08659 whole entry, looked up): as the sequence (P08659 whole entry) above
Sequence of FLuc-C-NLuc (firefly luciferase) (P08659 2-550 L550V, form open): as the sequence (P08659 2-550 L550V, form open) above
T1 sequence (Q9GV45 other isoform, or with tags, fused parts or gaps with the stated changes): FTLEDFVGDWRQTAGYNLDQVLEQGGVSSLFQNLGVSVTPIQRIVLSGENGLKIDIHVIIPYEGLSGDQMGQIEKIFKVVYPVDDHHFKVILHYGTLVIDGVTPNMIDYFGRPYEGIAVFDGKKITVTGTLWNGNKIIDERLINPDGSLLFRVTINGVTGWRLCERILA

Row | SMILES | Efficacy (%) NLuc (- ATP) (NLuc) [%] | Efficacy (%) FLuc E (P. pyralis FLuc; Clade S follow-up) [%] | pIC50 or pSDR50 FLuc E (P. pyralis FLuc; Clade S follow-up) | IC50 (P. pyralis FLuc; Clade S follow-up) [mM] | IC50 (FLuc-C-HiBiT) [mM] | Efficacy (%) FLuc-C-NLuc SDR (-ATP) [1] [%] | % Activity (max response, + ATP) [2] [%] | % Activity (max response, - ATP) ([2]; - ATP) [%] | pIC50 or pSDR50 FLuc E (P. pyralis FLuc) | IC50 (P. pyralis FLuc) [mM] | pIC50 or pSDR50 NLuc (- ATP) (NLuc) | IC50 (NLuc; read-out: IC50 or SDR50 (mM) NLuc (- ATP)) [mM] | pSDR50 (clade S) ([2]; - ATP, dihydro-imidazo-oxazine (clade S))
1 | CC(C)c1ccc(NC(=O)C2CCN(C(=O)c3ncn4c3COC(c3ccccc3)C4)CC2)cc1 (centres unmarked) [NCGC00449909-01] | 0.00 | -93.68 | 5.51 | 0.00312 | 0.00351 | 0.00 | 370.54 | 0.00 |  |  |  |  | 
2 | O=C(Nc1ccc(Cl)cc1)C1CCN(C(=O)c2ncn3c2COC(c2ccccc2)C3)CC1 (centres unmarked) [NCGC00449917-01] | 0.00 | -91.81 | 5.81 | 0.00157 | 0.00176 | 0.00 | 361.85 | 0.00 |  |  |  |  | 
3 | Cc1ccc(NC(=O)C2CCN(C(=O)c3ncn4c3COC(c3ccccc3)C4)CC2)cc1 (centres unmarked) [NCGC00449903-01] | 0.00 | -93.84 | 5.61 | 0.00248 | 0.00176 | 0.00 | 343.11 | 0.00 |  |  |  |  | 
4 | O=C(Nc1cccc(F)c1)C1CCN(C(=O)c2ncn3c2COC(c2ccccc2)C3)CC1 (centres unmarked) [NCGC00449914-01] | 0.00 | -105.74 | 6.21 | 0.00062 | 0.000881 | 0.00 | 387.59 | 0.00 |  |  |  |  | 
5 | O=C(NCc1ccncc1)C1CCN(C(=O)c2ncn3c2COC(c2ccccc2)C3)CC1 (centres unmarked) [NCGC00449800-01] | 0.00 | -91.84 |  |  | 0.00176 | 0.00 | 375.34 | 0.00 | 6.01 | 0.00099 |  |  | 
6 | O=C(Nc1ccc(F)c(F)c1)C1CCN(C(=O)c2ncn3c2COC(c2ccccc2)C3)CC1 (centres unmarked) [NCGC00449916-01] | 0.00 | -98.00 | 6.11 | 0.00078 | 0.000989 | 0.00 | 236.10 | 8.48 |  |  |  |  | 
7 | COc1ccc(NC(=O)C2CCN(C(=O)c3ncn4c3COC(c3ccccc3)C4)CC2)cc1OC (centres unmarked) [NCGC00449911-01] | 11.18 | -91.83 | 5.51 | 0.00312 | 0.00351 | 0.00 | 240.56 | 15.50 |  |  |  |  | 
8 | CSc1ccc(CNC(=O)C2CCN(C(=O)c3ncn4c3COC(c3ccccc3)C4)CC2)cc1 (centres unmarked) [NCGC00449782-01] | -35.74 | -89.02 |  |  | 0.00624 | 0.00 | 293.16 | 0.00 | 5.26 | 0.00555 | 4.71 | 0.0197 | 
9 | Cc1ccc(C2Cn3cnc(C(=O)N4CCC(C(=O)NCc5ccco5)CC4)c3CO2)cc1 (centres unmarked) [NCGC00449893-01] | 0.00 | -75.71 | 5.01 | 0.00988 | 0.00881 | 0.00 | 104.01 | 0.00 |  |  |  |  | 
10 | COc1ccc(C)cc1NC(=O)C1CCN(C(=O)c2ncn3c2COC(c2ccc(F)cc2)C3)CC1 (centres unmarked) [NCGC00449936-01] | 0.00 | -99.49 | 5.06 | 0.0088 | 0.00989 | 0.00 | 128.83 | -5.78 |  |  |  |  | 
11 | CCOc1cccc(CNC(=O)C2CCN(C(=O)c3ncn4c3COC(c3ccccc3)C4)CC2)c1 (centres unmarked) [NCGC00449780-01] | 0.00 | -78.48 |  |  | 0.00785 | 0.00 | 197.04 | 0.00 | 4.96 | 0.0111 |  |  | 
12 | O=C(NCc1ccccc1F)C1CCN(C(=O)c2ncn3c2COC(c2ccccc2)C3)CC1 (centres unmarked) [NCGC00449783-01] | 14.02 | -77.35 |  |  | 0.00351 | 0.00 | 339.74 | 0.00 | 5.41 | 0.00393 |  |  | 
13 | CC1CCC(NC(=O)C2CCN(C(=O)c3ncn4c3COC(c3ccccc3)C4)CC2)CC1 (centres unmarked) [NCGC00449768-01] | 0.00 | -93.28 |  |  | 0.00248 | 0.00 | 387.83 | 0.00 | 5.71 | 0.00197 |  |  | 
14 | CC(NC(=O)C1CCN(C(=O)c2ncn3c2COC(c2ccccc2)C3)CC1)c1ccc(F)cc1 (centres unmarked) [NCGC00449793-01] | 0.00 | -92.83 |  |  | 0.00495 | 0.00 | 272.56 | 0.00 | 5.16 | 0.00699 |  |  | 
15 | O=C(NCCc1cccs1)C1CCN(C(=O)c2ncn3c2COC(c2ccccc2)C3)CC1 (centres unmarked) [NCGC00449796-01] | 0.00 | -97.05 |  |  | 0.00442 | 0.00 | 316.37 | 0.00 | 5.26 | 0.00555 |  |  | 
16 | COc1ccc(NC(=O)C2CCN(C(=O)c3ncn4c3COC(c3ccccc3)C4)CC2)cc1Cl (centres unmarked) [NCGC00449919-01] | -11.50 | -103.24 | 6.36 | 0.00044 | 0.000881 | -15.13 | 241.73 | 38.71 |  |  |  |  | 4.85
17 | O=C(NCc1cc(F)ccc1F)C1CCN(C(=O)c2ncn3c2COC(c2ccccc2)C3)CC1 (centres unmarked) [NCGC00449804-01] | 0.00 | -84.67 |  |  | 0.00313 | 0.00 | 321.30 | 16.31 | 5.41 | 0.00393 |  |  | 
18 | Cc1cccc(NC(=O)C2CCN(C(=O)c3ncn4c3COC(c3ccccc3)C4)CC2)c1 (centres unmarked) [NCGC00449902-01] | 0.00 | -97.06 | 5.66 | 0.00221 | 0.00248 | 0.00 | 372.05 | 0.00 |  |  |  |  | 
19 | O=C(Nc1ccc(F)cc1)C1CCN(C(=O)c2ncn3c2COC(c2ccccc2)C3)CC1 (centres unmarked) [NCGC00449915-01] | 0.00 | -91.87 | 5.91 | 0.00124 | 0.00176 | 0.00 | 357.60 | 0.00 |  |  |  |  | 
20 | CCOc1ccc(NC(=O)C2CCN(C(=O)c3ncn4c3COC(c3ccccc3)C4)CC2)cc1 (centres unmarked) [NCGC00449913-01] | -11.50 | -92.73 | 5.36 | 0.00441 | 0.007 | 0.00 | 212.53 | 0.00 |  |  |  |  | 
21 | O=C(NCc1cccs1)C1CCN(C(=O)c2ncn3c2COC(c2ccccc2)C3)CC1 (centres unmarked) [NCGC00449792-01] | 0.00 | -100.37 |  |  | 0.00248 | 0.00 | 209.49 | 17.67 | 5.51 | 0.00312 |  |  | 
22 | CC(C)c1cccc(NC(=O)C2CCN(C(=O)c3ncn4c3COC(c3ccccc3)C4)CC2)c1 (centres unmarked) [NCGC00449908-01] | 0.00 | -95.10 | 5.26 | 0.00555 | 0.00785 | 0.00 | 304.79 | 0.00 |  |  |  |  | 
